# In publication PMC5589090 (PLoS Medicine, 2017):
# Several values for one entry are separate records, joined by “and”; a condition that tells them apart may be missing. Equal entries are not always repeated. Entries after “also recorded” stand apart in the source; their conditions may differ. Where two headings read alike, the source gives them in different places.
# How the values were obtained:
# [1] = 4 SCD subjects, subcutaneous or oral, 30-500 days; cited from earlier work
# [2] = test system: HbF; conditions: same non-human primates (n = 14); cited from earlier work
# [3] = THU solubility and storage stability; type: physicochemical; conditions: stored at -20°C; 1 year study and about 4 years re test
# Experimental: Prior to administration, a glass bottle containing THU will be brought to room temperature, and dissolved in 2 ml water with a further dilution to a final volume of 10 ml, to create a solution with a final concentration that is determined by the amount of drug in the glass vial (THU is soluble to at least 100 mg/ml in water). Using this final concentration, a volume of solution containing the appropriate dose will be removed, diluted further with water to a total volume of 30ml and given by mouth. The time between reconstitution of drug and oral administration should not exceed 60 minutes, and remaining solution is to be discarded.
# [4] = cited from earlier work
# [5] = set-up: method as in ref 40,59-61,63-69 (main text); 25;37-45 (protocol); conditions: 25;37-45 (protocol); cited from earlier work
# [6] = test system: nucleotide pool sizes; conditions: cited from earlier work
# [7] = in vivo; cited from earlier work
# [8] = cited from earlier work; remark: listed apart in the source
# [9] = set-up: method as in ref 26 (a number printed in a supplementary file, which may have a reference list of its own: not looked up in the article's list); conditions: cited from earlier work
# [10] = test system: mammary tumors; conditions: intraperitoneal 125-250 mg/kg thrice weekly for 6 months, rats surviving to 18 months; cited from earlier work
# [11] = test system: HbF; conditions: cited from earlier work
# [12] = cited from earlier work; remark: listed apart in the source
compound,measurement,setting,value
Nc1ncn([C@@H]2O[C@H](CO)[C@@H](O)[C@H]2O)c(=O)n1 [5-azacytidine],marrow toxicity,[1],No marrow toxicity was observed
same,greater increases in HbF than cytarabine or hydroxyurea,[2],2 to 20 fold
"O=C1NC(O)CCN1[C@@H]1O[C@H](CO)[C@@H](O)[C@H]1O (stereo partly drawn) [THU, tetrahydrouridine]",stability of bulk drug,[3],demonstrate THU stability
same,solubility in water,[4],at least 100 mg/ml
same,toxicity / side effects in animals and humans,[5],No toxicities have been found; also recorded: have not identified any toxic side-effects; also recorded: no toxic side-effects have been identified; also recorded: benign toxicity profile; also recorded: no side effects observed; also recorded: has not caused toxicity
same,effect on nucleotide pool sizes,[6],no effect
same,share of elimination by renal excretion,[7],~ 50%
Nc1ccn([C@@H]2O[C@H](CO)[C@@H](O)[C@@H]2O)c(=O)n1 [cytarabine],greater exposure in mice versus monkey dose for dose,[8],more than 100 fold
Nc1ccn([C@@H]2O[C@H](CO)[C@@H](O)C2(F)F)c(=O)n1 [gemcitabine],oral bioavailability,[9]; with THU co-administration,~ 40%
same,oral bioavailability,[9]; without THU,~ 10%
NC(=O)NO [hydroxyurea],incidence of mammary tumors,[10],increased the incidence of mammary tumors
same,mean change in HbF after 2 years of treatment,[11]; SCD patients with no HbF response in the pivotal trial,~0% and 0.3%
same,adult SCD patients in whom HbF increased for 2 years,"[11]; hydroxyurea 15–35 mg/kg, pivotal trial",approximately 50%
same,subjects who did not respond (no elevated HbF after two years),[11]; pivotal multi-center trial,approximately 50%
same,Average HbF increases at 2 years,[11]; pivotal trial,3.6%
same,average total hemoglobin increase,[11]; pivotal trial,0.6 g/dL
same,genotoxicity,[12]; package insert,genotoxic in a wide range of test systems
same,neutrophil recovery time,"[12]; pancellular hematologic toxicities, ref AHFS Drug Information, 2000",up to 2 weeks
